According to ChEMBL document CHEMBL5543142, “Discovery of YFJ-36: Design, Synthesis, and Antibacterial Activities of Catechol-Conjugated β-Lactams against Gram-Negative Bacteria” (J Med Chem, 2024):

Assays:
[1] = AUC (0 to infinity) in ICR mouse at 20 mg/kg,iv administration measured upto 4 hrs by LC-MS/MS analysis; type: ADME, organism-based; details: in vivo
[2] = Clearance in ICR mouse at 20 mg/kg,iv administration measured upto 4 hrs by LC-MS/MS analysis; type: ADME, organism-based; details: in vivo
[3] = Half life in ICR mouse at 20 mg/kg,iv administration measured upto 4 hrs by LC-MS/MS analysis; type: ADME, organism-based; details: in vivo
[4] = MRT in ICR mouse at 20 mg/kg,iv administration measured upto 4 hrs by LC-MS/MS analysis; type: ADME, organism-based; details: in vivo
[5] = Volume of distribution at steady state in ICR mouse at 20 mg/kg,iv administration measured upto 4 hrs by LC-MS/MS analysis; type: ADME, organism-based; details: in vivo, read-out: Vdss
[6] = AUC (0 to infinity) in Sprague-Dawley rat at 5 mg/kg,iv administration measured upto 4 hrs by LC-MS/MS analysis; type: ADME, organism-based; details: in vivo
[7] = Clearance in Sprague-Dawley rat at 5 mg/kg,iv administration measured upto 4 hrs by LC-MS/MS analysis; type: ADME, organism-based; details: in vivo
[8] = Half life in Sprague-Dawley rat at 5 mg/kg,iv administration measured upto 4 hrs by LC-MS/MS analysis; type: ADME, organism-based; details: in vivo
[9] = MRT in Sprague-Dawley rat at 5 mg/kg,iv administration measured upto 4 hrs by LC-MS/MS analysis; type: ADME, organism-based; details: in vivo
[10] = Volume of distribution at steady state in Sprague-Dawley rat at 5 mg/kg,iv administration measured upto 4 hrs by LC-MS/MS analysis; type: ADME, organism-based; details: in vivo, read-out: Vdss
[11] = test system: Acinetobacter baumannii; assay: Antibacterial activity against multidrug-resistant Acinetobacter baumannii BM-2023-D2-010 infected in ICR mouse assessed as survival rate at 40 mg/kg,iv after 1 and 5 hour of post-infection measured after 7 days relative to control; type: functional; details: time 7 day
[12] = test system: Acinetobacter baumannii; assay: Antibacterial activity against multidrug-resistant Acinetobacter baumannii BM-2023-D2-010 infected in ICR mouse assessed as survival rate at 28 mg/kg,iv after 1 and 5 hour of post-infection measured after 7 days relative to control; type: functional; details: time 7 day
[13] = test system: Acinetobacter baumannii; assay: Antibacterial activity against multidrug-resistant Acinetobacter baumannii BM-2023-D2-010 infected in ICR mouse assessed as survival rate at 19.6 mg/kg,iv after 1 and 5 hour of post-infection measured after 7 days relative to control; type: functional; details: time 7 day
[14] = test system: Acinetobacter baumannii; assay: Antibacterial activity against multidrug-resistant Acinetobacter baumannii BM-2023-D2-010 infected in ICR mouse assessed as survival rate at 13.7 mg/kg,iv after 1 and 5 hour of post-infection measured after 7 days relative to control; type: functional; details: time 7 day
[15] = test system: Acinetobacter baumannii; assay: Antibacterial activity against multidrug-resistant Acinetobacter baumannii BM-2023-D2-010 infected in ICR mouse assessed as survival rate at 9.6 mg/kg,iv after 1 and 5 hour of post-infection measured after 7 days relative to control; type: functional; details: time 7 day
[16] = test system: Acinetobacter baumannii; assay: Antibacterial activity against multidrug-resistant Acinetobacter baumannii BM-2023-D2-010 infected in ICR mouse assessed as survival rate at 6.72 mg/kg,iv after 1 and 5 hour of post-infection measured after 7 days relative to control; type: functional; details: time 7 day
[17] = test system: Acinetobacter baumannii; assay: Antibacterial activity against multidrug-resistant Acinetobacter baumannii BM-2023-D2-010 infected in ICR mouse assessed as survival rate at 4.71 mg/kg,iv after 1 and 5 hour of post-infection measured after 7 days relative to control; type: functional; details: time 7 day

With `Nc1nc(/C(=N/O[C@@H](C(=O)[O-])C2CCC(F)(F)CC2)C(=O)N[C@@H]2C(=O)N3C(C(=O)O)=C(CSCCNC(=O)c4ccc(O)c(O)c4Cl)CS[C@H]23)cs1.[Na+]` the AUC(0-inf) [1] was 8910 ng·h/mL, the clearance [2] was 49.8 mL/min/kg and the half-life [3] was 29.4 min. The MRT [4] was 9.6 min, the Vd [5] was 0.488 L/kg and the AUC(0-inf) [6] was 2260 ng·h/mL. For the same molecule, the clearance [7] was 38.7 mL/min/kg, the half-life [8] was 13.8 min and the MRT [9] was 9.6 min. The Vd [10] was 0.37 L/kg, the Activity [11] was 100% and the Activity [12] was 100%. The Activity [13] was 100%, the Activity [14] was 100% and the Activity [15] was 70%. For the same molecule, the Activity [16] was 30% and the Activity [17] was 20%.
